Assay results from patent publication US20050148069A1, “IGF-1 instructs multipotent adult CNS neural stem cells to an oligodendroglial lineage” (priority 2003, published 2005).

Tests used:
[1] = test system: adult hippocampus-derived neural progenitor cells; assay: proliferation by BrdU incorporation; assay type: cell-based, rat; settings: 500 ng/ml IGF-I
Description: We next determined whether proliferation of progenitors might contribute to the observed increase in oligodendrocyte differentiation. Bromodeoxyuridine (BrdU) (2.5 μM) was added to parallel cultures for 12 hours at times 0-, 12-, 24-, and 36-h after plating, followed by fixation and quantification of total cell numbers and BrdU+ cells. We counted the progenitor cells (evidenced by a lack of RIP staining) that were labeled with BrdU at each time point. For cells grown in the absence of IGF-I, we observed a progressive decrease in the percentage of cells that were proliferating (BrdU+) during the 48-h experiments (FIG. 3B). […] This initial decrease in proliferation is most likely due to FGF-2 mitogen withdrawal. […]
Cells were fixed with 4% paraformaldehyde, followed by immunocytochemical staining as described (Palmer et al., 1999). […] Quantification of cell phenotypes was with StereoInvestigator (MicroBrightfield Inc.); for each marker, 500-1000 cells were sampled systematically from standardized fields at 40×magnification. For quantification of live/dead cells, images were taken of cultures live-stained with propidum iodide (1 μg/ml; Molecular Probes) and Hoescht 33342 (1 μg/ml; Sigma) at 10×magnification, and cells were counted using Image-Pro (Media Cybernetics). […]

Smad6 = assay: quantitative real time PCR, Smad6 expression; assay type: cell-based, rat; settings: 500 ng/ml IGF-I, up to 48 hours, normalized to GAPDH
Excerpt: If IGF-I induction of oligodendrocyte differentiation involves the inhibition of BMP signaling, a change in the expression of BMP antagonists after IGF-I treatment might be observed. In addition to extracellular antagonists of BMP signaling, such as Noggin, intracellular proteins that can interfere with downstream BMP receptor signaling, called inhibitory Smads (Smad6, 7), have also been identified (Christian and Nakayama, 1999). Therefore, we performed Q-PCR analyses of cultures treated with IGF-I after various time points (up to 48 hours) and examined the relative fold change (normalized to an internal control; see Methods) of Noggin, Smad6, 7 (FIG. 6, A-C). Expression of Noggin, Smad6, 7 increased by at least 6-, 5-, and 2-fold, respectively, after IGF-I treatment (p<0.05, t-test). There may be an unexplained downregulation of Smad6 at the 48-h time point.
Total RNA was isolated from cell cultures using RNeasy columns (Qiagen). For real-time quantitative PCR, reactions were carried out essentially as described (Zhao et al., 2001). The relative amount of the tested message was normalized to the level of the internal control message, GAPDH. […] Primer sequences are available upon request.

[2] = test system: oligodendrocytes in the hilus of the adult rat hippocampus; assay: IGF-I overexpression in vivo in the hippocampus (hilus), immunohistochemistry; settings: 4 weeks after injection
Description: cDNA encoding the human IGF-I gene was cloned into a recombinant AAV vector and the virus was prepared as previously described (Kaspar et al., 2002). Expression of IGF-I and {overscore (β)}gal (control AAV) was first confirmed in human embryonic kidney (HEK-293) cells by RT-PCR and Western analysis and subsequently in the hippocampus by RT-PCR analysis (unpublished data). Recombinant AAV-IGF-I (rAAV-IGF-I) or AAV-{overscore (β)}gal (rAAV-{overscore (β)}gal) was stereotaxically injected into the hippocampus (anteroposterior axis, −4.0 mm; mediolateral axis, +2.0 mm; dorsoventral axis, −3.0 from skull, with nose bar at 3.3 mm up) of anesthetized female Fischer-344 rats (150-175 g; n=6). […]
All comparative analyses were focused on the hilus of the injected side on matched hippocampal sections. For RIP or MBP staining, immunofluorescence average pixel intensity of equivalent sized fields (4 from each animal) in control and experimental groups was determined from digital images using Adobe Photoshop. To quantify the number of oligodendrocytes, sections were immunostained with GST-π. Only immunolabeled cells with a clear DAPI-positive nucleus were scored. For quantification of GST-π cells, area counts of the hilus within the dentate gyrus of the hippocampus were performed. […] The results are expressed as the average number of cells per section.

IGF-I: human recombinant IGF-I (R&D Systems), growth factor polypeptide
percentage of RIP− cells that incorporated BrdU ([1]; 12-h BrdU periods up to 48 h): decreasing trend in the first three time periods | RIP+ cells positive for BrdU ([1]; after 24 hours): significant increase in RIP+ cells positive for BrdU | relative fold change of Smad6 expression (Smad6): ≥ 5 fold | GFAP staining vs control animals [2]: no observable difference in GFAP staining
